Reference: patent US10300029B2, “Organ protection solutions and method of use” (VIRGINIA COMMONWEALTH UNIVERSITY, priority 2011, dated 2019)

What was measured:
[1] = tested on: shocked rodents; assay: Hemorrhagic shock model, low volume resuscitation with gluconate (Example 4); type: in vivo
Experimental: Gluconate was administered in the organ protectant solution (e.g., a low volume resuscitation (LVR) solution with cell impermeants according to the present invention) in order to achieve a theoretical gluconate concentration of about 60 mM in the extracellular fluid compartment (subsequent experiments have shown that about 100 mM is probably optimal). The idea of low volume resuscitation is to give the shocked patient small volumes of intravenous fluids to prolong the time on the field to allow for rescue and transport to a forward hospital where more definitive resuscitation can occur (due to fewer resource limitations). The purpose of the addition of the cell impermeants to the LVR solution (usually saline) was to increase this “down time” further, effectively increasing the tolerance to the low flow state and making it more likely that the patient can survive the wait to the hospital. Essentially, the objective is to increase the “Golden Hour”.
In shock experiments, the time that the control animals could remain in the low volume state (after LVR administration) was 64 minutes. […] This means that these subjects were able to stay safely in the low volume state for much longer periods. In practical terms, they can wait longer for transport and full resuscitation, yet presumably have a higher chance of survival.

[2] = tested on: normal pig blood
Experimental: The (A) PT-INR and (B) aPTT effects were determined in both normal pig blood after ex-vivo mixing with PEG-20k LVR solutions (10% dilution) or with a saline control, also at a 10% solution, and after the end of the LVR period in pigs given PEG-20k based LVR solutions.
Juvenile swine (35-40 kn) were anesthetized with Ketamine/Xylazine, and propofol induction followed by isofluorane inhalation anesthesia maintenance (1-2%). A swan-Ganz catheter was introduced into the pulmonary artery via a cut down of the right jugular vein for the continuous measurement of cardiac output, pulmonary artery pressures, and sVO2 (mixed venous O2 saturation) by an optical sensor on the PA catheter. Blood pressure and arterial blood gases were measured by a line in the femoral artery. A line in the carotid artery and contralateral jugular vein was used for bleeding and resuscitation, respectively. […]
Finally, coagulation was determined in both normal pig blood after ex-vivo mixing with PEG-20k LVR solutions (10% dilution) or with a saline control, also at a 10% solution, and after the end of the LVR period in pigs given PEG-20k based LVR solutions.

[3] = tested on: rodent capillaries; design: species or system rats; conditions: rat, in vivo
Experimental: FIG. 10A-D. A) Diagram showing the shock, resuscitation, and recovery protocol used for these studies. The low volume resuscitation (LVR) time is the time from the start of the low volume resuscitation (after the lactate during hemorrhagic shock reaches 9-10 mM) until the time after the LVR infusion when the lactate rises back up to 9-10 mM again. This immediately precedes full resuscitation. The LVR time is a measure of the tolerance to the low volume state and is a function of the microcirculatory effectiveness since it is dependent on the rate of change of the plasma lactate. […] The numbers on the x-axis are the corresponding lactate concentrations in the plasma at the end of the LVR period. Most are close to 10 mM because that was the definition of the end of the LVR period. […] D) The oncotic reflection coefficient (σd) for PEG-20k was measured in six rats to determine the impermeant and the oncotic effects of this molecule in both the mesenteric vascular bed and the thoracic bed. FITC-labeled PEG-20k was used as a tracer molecule and the reflection coefficient was determined by measuring the lymph (L) to plasma (P) concentrations of FITC-PEG after an IV injection of the tracer under conditions of high lymph flow induced by volume loading with I.V. saline infusions (0.25 ml/min). […] FITC-labelled PEG-20k was measured by excitation-emission spectrofluorometry. […]

[4] = tested on: juvenile swine in hemorrhagic shock
From the text: Saline control • b. […] Results

[5] = 24 hours after shock and resuscitation, vs controls

Compound | albumin [1, 5] | liver enzymes [1, 5] | metabolic acidosis [1, 5] | LVR time ([1]; gluconate added to LVR solution, theoretical about 60 mM in extracellular fluid) | coagulation (PT-INR, aPTT), ex-vivo mixing test [2] | capillary oncotic reflection coefficient [3] | coagulation (PT-INR, aPTT), in-vivo [4]
O=C(O)[C@H](O)[C@@H](O)[C@H](O)[C@H](O)CO [gluconate] | higher | lower | less | over 106 minutes | – | – | –
polyethylene glycol 20,000 [PEG-20k] | – | – | – | – | not altered | about 0.65 | not altered
